Results: patent US20230031406A1, “COMPOUNDS AND COMPOSITIONS FOR TREATING CONDITIONS ASSOCIATED WITH NLRP ACTIVITY” (Novartis AG, priority 2018, published 2023)
Each block holds one molecule with its values, some of them ahead of it.

What was measured:
[1] = test system: PMA-differentiated THP-1 cells; assay: hTHP-1 assay containing 10% fetal bovine serum (IL-1β production, Tables B5 and B6); assay type: cell-based, human
Protocol: The following protocol is suitable for testing the activity of the compounds disclosed herein. Procedure 1: IL-1β Production in PMA-Differentiated THP-1 Cells Stimulated with Gramicidin.
THP-1 cells were purchased from the American Type Culture Collection and sub-cultured according to instructions from the supplier. Cells were cultured in complete RPMI 1640 (containing 10% heat inactivated FBS, penicillin (100 units/ml) and streptomycin (100 μg/ml)), and maintained in log phase prior to experimental setup. Prior to the experiment, compounds were dissolved in dimethyl sulfoxide (DMSO) to generate a 30 mM stock. The compound stock was first pre-diluted in DMSO to 3, 0.34, 0.042 and 0.0083 mM intermediate concentrations and subsequently spotted using Echo550 liquid handler into an empty 384-well assay plate to achieve desired final concentration (e.g. 100, 33, 11, 3.7, 1.2, 0.41, 0.14, 0.046, 0.015, 0.0051, 0.0017 μM). DMSO was backfilled in the plate to achieve a final DMSO assay concentration of 0.37%. The plate was then sealed and stored at room temperature until required.
THP-1 cells were treated with PMA (Phorbol 12-myristate 13-acetate) (20 ng/ml) for 16-18 hours. On the day of the experiment the media was removed and adherent cells were detached with trypsin for 5 minutes. […] The cells were plated in the 384-well assay plate containing the spotted compounds at a density of 50,000 cells/well (final assay volume 50 μl). Cells were incubated with compounds for 1 hour and then stimulated with gramicidin (5 μM) (Enzo) for 2 hours. Plates were then centrifuged at 340 g for 5 min. Cell free supernatant (40 μL) was collected using a 96—CHannel PlateMaster (Gilson) and the production of IL-1β was evaluated by HTRF (cisbio). The plates were incubated for 18 h at 4° C. and read using the preset HTRF program (donor emission at 620 nm, acceptor emission at 668 nm) of the SpectraMax i3x spectrophotometer (Molecular Devices, software SoftMax 6). A vehicle only control and a dose titration of CRID3 (100-0.0017 μM) were run concurrently with each experiment.
Procedure 2: IL-1β Production in PMA-Differentiated THP-1 Cells Stimulated with Gramicidin.
THP-1 cells were purchased from the American Type Culture Collection and sub-cultured according to instructions from the supplier. Prior to experiments, cells were cultured in complete RPMI 1640 (containing 10% heat inactivated FBS, penicillin (100 units/ml) and streptomycin (100 μg/ml)), and maintained in log phase prior to experimental setup. Prior to the experiment THP-1 were treated with PMA (Phorbol 12-myristate 13-acetate) (20 ng/ml) for 16-18 hours. Compounds were dissolved in dimethyl sulfoxide (DMSO) to generate a 30mM stock. On the day of the experiment the media was removed and adherent cells were detached with trypsin for 5 minutes. […] The cells were plated in a 384-well plate at a density of 50,000 cells/well (final assay volume […]). Compounds were first dissolved in assay medium to obtain a 5× top concentration of 500 μM. 10 step dilutions (1:3) were then undertaken in assay medium containing 1.67% DMSO. 5× compound solutions were added to the culture medium to achieve desired final concentration (e.g. 100, 33, 11, 3.7, 1.2, 0.41, 0.14, 0.046, 0.015, 0.0051, 0.0017 μM). Final DMSO concentration was at 0.37%. Cells were incubated with compounds for 1 hour and then stimulated with gramicidin (5 μM) (Enzo) for 2 hours. Plates were then centrifuged at 340 g for 5 min. Cell free supernatant (40 μL) was collected using a 96—CHannel PlateMaster (Gilson) and the production of IL-1β was evaluated by HTRF (cisbio). A vehicle only control and a dose titration of CRID3 (100-0.0017 μM) were run concurrently with each experiment.
Tables B1, B2, B3, and B4 show the biological activity of compounds in hTHP-1 assay containing 2% fetal bovine serum. […] Key: <0.008 μM=“++++++”; ≥0.008 and <0.04 μM=“+++++”; >0.04 and <0.2 μM=“++++”; ≥0.2 and <1 μM=“+++”; ≥1 and <5 μM=“++”; ≥5 and <30 μM=“+”. […]

[2] = test system: PMA-differentiated THP-1 cells; assay: IL-1β production in PMA-differentiated THP-1 cells stimulated with gramicidin (hTHP-1 assay containing 2% fetal bovine serum; Procedures 1 and 2); assay type: cell-based, human; conditions: 2% fetal bovine serum
How it was run: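 PMA 20 ng/ml 16-18 h → trypsinise → 50,000 cells/well, RPMI/2% FBS; cpd 1 h (11-pt, 100–0.0017 μM; DMSO 0.37%); gramicidin 5 μM, 2 h; spin; supernatant IL-1β via HTRF.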

[3] = read-out: hTHP-1 IC50 in 10% FBS, hTHP-1 assay containing 10% fetal bovine serum, Table B6
[4] = Homo sapiens, THP-1, read-out: hTHP-1 IC50 in 10% FBS, hTHP-1 assay containing 10% fetal bovine serum, Table B5
[5] = Table B2, class symbols, read-out: hTHP-1 IC50
[6] = Homo sapiens, THP-1, Table B2, class symbols, read-out: hTHP-1 IC50

IC50 ([1]; read-out: hTHP-1 IC50 in 10% FBS, hTHP-1 assay containing 10% fetal bovine serum, Table B5, listed as 838): 40 to 200 nM
Compound: CC(C)(O)c1csc(S(N)(=O)=NC(=O)Nc2c3c(nc4c2CCC4)CCC3)c1F (single isomer, unassigned) [Compound 1107a, (R) or (S)-3-fluoro-N′-((1,2,3,5,6,7-hexahydrodicyclopenta[b,e]pyridin-8-yl)carbamoyl)-4-(2-hydroxypropan-2-yl)thiophene-2-sulfonimidamide]

IC50 ([1]; read-out: hTHP-1 IC50 in 10% FBS, hTHP-1 assay containing 10% fetal bovine serum, Table B5, listed as 828): 5000 to 30000 nM
Compound: Cc1c(C(F)(F)F)nc2c(c1NC(=O)N=S(N)(=O)c1cnc(C(F)F)s1)CCC2 (single isomer, unassigned) [Compound 1007b, (S) or (R)-2-(Difluoromethyl)-N′-((3-methyl-2-(trifluoromethyl)-6,7-dihydro-5H-cyclopenta[b]pyridin-4-yl)carbamoyl)thiazole-5-sulfonimidamide]

IC50 ([1]; read-out: hTHP-1 IC50 in 10% FBS, hTHP-1 assay containing 10% fetal bovine serum, Table B5, listed as 844): 200 to 1000 nM
Compound: Cc1nc2c(c(NC(=O)N=S(N)(=O)c3scc(C(C)(C)O)c3F)c1-c1ccccc1)CCC2 (single isomer, unassigned) [Compound 1110a, (S) or (R)-3-fluoro-4-(2-hydroxypropan-2-yl)-N′-((2-methyl-3-phenyl-6,7-dihydro-5H-cyclopenta[b]pyridin-4-yl)carbamoyl)thiophene-2-sulfonimidamide]

IC50 [1, 3]: 200 to 1000 nM
Compound: C[C@@H]1CCc2c1nc1c(c2NC(=O)N=S(N)(=O)c2nn(C3CC3)cc2F)CCC1 (single isomer, unassigned) [Example 868, (S) or (R)-1-cyclopropyl-4-fluoro-N′-(((R)-3-methyl-1,2,3,5,6,7-hexahydrodicyclopenta[b,e]pyridin-8-yl)carbamoyl)-1H-pyrazole-3-sulfonimidamide]

IC50 ([1]; Homo sapiens, THP-1, read-out: hTHP-1 IC50 in 10% FBS, hTHP-1 assay containing 10% fetal bovine serum, Table B6): 40 to 200 nM
Compound: Cc1c(C(F)(F)F)nc2c(c1NC(=O)N=S(N)(=O)c1nn(C3CC3)cc1F)CCC2 (stereo not shown) [Example 854, 1-Cyclopropyl-4-fluoro-N′-((3-methyl-2-(trifluoromethyl)-6,7-dihydro-5H-cyclopenta[b]pyridin-4-yl)carbamoyl)-1H-pyrazole-3-sulfonimidamide]

IC50 [1, 4]: 40 to 200 nM
Compound: CC(C)(O)c1csc(S(N)(=O)=NC(=O)Nc2c3c(nc4c2CCC4)CCC3)c1F (stereo not shown) [Compound 1107, 3-Fluoro-N′-((1,2,3,5,6,7-hexahydrodicyclopenta [b,e]pyridin-8-yl)carbamoyl)-4-(2-hydroxypropan-2-yl)thiophene-2-sulfonimidamide]

IC50 ([1]; read-out: hTHP-1 IC50 in 10% FBS, hTHP-1 assay containing 10% fetal bovine serum, Table B5, listed as 833): 1000 to 5000 nM
Compound: Cc1c(C(F)(F)F)nc2c(c1NC(=O)N=S(N)(=O)c1nn(C(C)(F)F)cc1F)CCC2 (single isomer, unassigned) [Compound 1004b, (S) or (R)-1-(1,1-Difluoroethyl)-4-fluoro-N′-((3-methyl-2-(trifluoromethyl)-6,7-dihydro-5H-cyclopenta[b]pyridin-4-yl)carbamoyl)-1H-pyrazole-3-sulfonimidamide]

IC50 [1, 3]: < 8 nM
Compound: C[C@@H]1CCc2c1nc1c(c2NC(=O)N=S(N)(=O)c2nn(C3CC3)cc2F)CCC1 (single isomer, unassigned) [Example 867, (R) or (S)-1-cyclopropyl-4-fluoro-N′-(((R)-3-methyl-1,2,3,5,6,7-hexahydrodicyclopenta[b,e]pyridin-8-yl)carbamoyl)-1H-pyrazole-3-sulfonimidamide]

IC50 ([1]; read-out: hTHP-1 IC50 in 10% FBS, hTHP-1 assay containing 10% fetal bovine serum, Table B5, listed as 850): 8 to 40 nM
Compound: C[C@@H]1CCc2c1nc1c(c2NC(=O)N=S(N)(=O)c2nn(C(C)(F)F)cc2F)CCC1 (single isomer, unassigned) [Compound 1117a, (R) or (S)-1-(1,1-difluoroethyl)-4-fluoro-N′-(((R)-3-methyl-1,2,3,5,6,7-hexahydrodicyclopenta[b,e]pyridin-8-yl)carbamoyl)-1H-pyrazole-3-sulfonimidamide]

IC50 [1, 4]: 40 to 200 nM
Compound: Cc1c(C(F)(F)F)nc2c(c1NC(=O)N=S(N)(=O)c1nn(C3CC3)cc1F)CCC2 (stereo not shown) [Compound 1114, 1-Cyclopropyl-4-fluoro-N′-((3-methyl-2-(trifluoromethyl)-6,7-dihydro-5H-cyclopenta [b]pyridin-4-yl)carbamoyl)-1H-pyrazole-3-sulfonimidamide]

IC50 [2, 5]: 5000 to 30000 nM
Compound: Cc1c(C2CC2)nc2c(c1NC(=O)N=S(N)(=O)c1cnn3c1OCCC3)CCC2 (single isomer, unassigned) [Compound 306a, (S) or (R)-N′-((2-cyclopropyl-3-methyl-6,7-dihydro-5H-cyclopenta[b]pyridin-4-yl)carbamoyl)-6,7-dihydro-5H-pyrazolo[5,1-b] [1,3]oxazine-3-sulfonimidamide]

IC50 ([2]; Table B1, numeric bounds, read-out: Average IC50 of compounds in hTHP-1 assay: hTHP-1 IC50): > 30000 nM
Compound: CC(C)(O)c1ncc(S(N)(=O)=NC(=O)Nc2c3c(nc4c2CCC4F)CCC3)s1 (single isomer, unassigned) [Compound 183d, (S,R) or (S,S)-N′-((3-fluoro-1,2,3,5,6,7-hexahydrodicyclo-penta[b,e]pyridin-8-yl)carbamoyl)-2-(2-hydroxypropan-2-yl)thiazole-5-sulfonimidamide]

IC50 [2, 6]: 5000 to 30000 nM
Compound: Cc1nc2c(c(NC(=O)N=S(N)(=O)c3cc(C(C)(C)O)cs3)c1C(C)C)CCC2 (single isomer, unassigned) [Compound 622b, (R) or (S)-4-(2-Hydroxypropan-2-yl)-N′-((3-isopropyl-2-methyl-6,7-dihydro-5H-cyclopenta[b]pyridin-4-yl)carbamoyl) thiophene-2-sulfonimidamide]

IC50 [2, 5]: 1000 to 5000 nM
Compound: Cc1c(C2CC2)nc2c(c1NC(=O)N=S(N)(=O)c1cc(C(C)(C)O)cs1)CCC2C (single isomer, unassigned) [Compound 656d, (R, S) or (R, R) or (S, R) or (S, S)-N′-((2-Cyclopropyl-3,7-dimethyl-6,7-dihydro-5H-cyclopenta[b]pyridin-4-yl)carbamoyl)-4-(2-hydroxypropan-2-yl)thiophene-2-sulfonimidamide]

IC50 [2, 5]: 1000 to 5000 nM
Compound: CCC1CCc2c1nc1c(c2NC(=O)N=S(N)(=O)c2cnc(C(C)(C)O)s2)CCC1 (stereo not shown) [Compound 662e]

IC50 [2, 6]: 1000 to 5000 nM
Compound: CC(C)(O)c1cc(Cl)c(S(N)(=O)=NC(=O)Nc2c3c(nc4c2CCC4)CCC3)s1 (stereo not shown) [Compound 691, 3-Chloro-N′-((1,2,3,5,6,7-hexahydrodicyclopenta[b, e]pyridin-8-yl)carbamoyl)-5-(2-hydroxypropan-2-yl)thiophene-2-sulfonimidamide]
